Data taken from US12077503B2, “Substituted cyclic amides and their use as herbicides” (FMC CORPORATION, priority 2015, dated 2024).

Assays:
Type in all cases: in vivo
[1] = test system: ivy-leaved morning glory (Ipomoea hederacea); assay: Test G Post-Emergence Protocol; settings: Ipomoea, post-emergence, 312 h, read-out: Morningglory, Ivy-leaved damage rating; for pest or weed control at 15.625 g/ha: 15.625 g ai/ha, evaluated after 13 days (100=total damage to plant; 0=no damage to plant); for pest or weed control at 62.5 g/ha: 62.5 g ai/ha; for pest or weed control at 62.5 g/ha / pest or weed control at 250 g/ha: evaluated after 13 days, 100=total damage to plant, 0=no damage to plant; for pest or weed control at 250 g/ha: 250 g ai/ha
Procedure, shortened: (§1)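 Pot-grown seedlings, 8 days old, raised in a glasshouse at 24/16 °C day/night with 14 h light and 65% humidity, were sprayed post-emergence with test compound in acetone/water (50:50) plus 0.5% Tween 20 at 15.625, 62.5 or 250 g/ha. Damage was scored visually 13 days later on a 0–100 scale (100 = total damage).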

[2] = test system: velvetleaf (Abutilon theophrasti); assay: Test G Post-Emergence Protocol; settings: Abutilon theophrasti, post-emergence, 312 h, read-out: Velvetleaf damage rating; for pest or weed control at 15.625 g/ha: 15.625 g ai/ha, evaluated after 13 days (100=total damage to plant; 0=no damage to plant); for pest or weed control at 62.5 g/ha: 62.5 g ai/ha; for pest or weed control at 62.5 g/ha / pest or weed control at 250 g/ha: evaluated after 13 days, 100=total damage to plant, 0=no damage to plant; for pest or weed control at 250 g/ha: 250 g ai/ha
Procedure, shortened: as §1

[3] = test system: giant foxtail (Setaria faberi); assay: Test G Post-Emergence Protocol; settings: Setaria faberi, post-emergence, 312 h, read-out: Foxtail, Giant damage rating; for pest or weed control at 15.625 g/ha: 15.625 g ai/ha, evaluated after 13 days (100=total damage to plant; 0=no damage to plant); for pest or weed control at 62.5 g/ha: 62.5 g ai/ha; for pest or weed control at 62.5 g/ha / pest or weed control at 250 g/ha: evaluated after 13 days, 100=total damage to plant, 0=no damage to plant; for pest or weed control at 250 g/ha: 250 g ai/ha
Procedure, shortened: as §1

[4] = test system: barnyardgrass (Echinochloa crus-galli); assay: Test G Post-Emergence Protocol; settings: Echinochloa crus-galli, post-emergence, 312 h, read-out: Barnyardgrass damage rating; for pest or weed control at 15.625 g/ha: 15.625 g ai/ha, evaluated after 13 days (100=total damage to plant; 0=no damage to plant); for pest or weed control at 62.5 g/ha: 62.5 g ai/ha; for pest or weed control at 62.5 g/ha / pest or weed control at 250 g/ha: evaluated after 13 days, 100=total damage to plant, 0=no damage to plant; for pest or weed control at 250 g/ha: 250 g ai/ha
Procedure, shortened: as §1

[5] = test system: redroot pigweed (Amaranthus retroflexus); assay: Test G Post-Emergence Protocol; settings: Amaranthus retroflexus, post-emergence, 312 h, read-out: Pigweed, Redroot damage rating; for pest or weed control at 15.625 g/ha: 15.625 g ai/ha, evaluated after 13 days (100=total damage to plant; 0=no damage to plant); for pest or weed control at 62.5 g/ha: 62.5 g ai/ha; for pest or weed control at 62.5 g/ha / pest or weed control at 250 g/ha: evaluated after 13 days, 100=total damage to plant, 0=no damage to plant; for pest or weed control at 250 g/ha: 250 g ai/ha
Procedure, shortened: as §1

corn (Zea mays) [6] = assay: Test G Post-Emergence Protocol; settings: Zea mays, post-emergence, 312 h, read-out: Corn damage rating; for plant injury at 15.625 g/ha: 15.625 g ai/ha, evaluated after 13 days (100=total damage to plant; 0=no damage to plant); for plant injury at 62.5 g/ha: 62.5 g ai/ha; for plant injury at 62.5 g/ha / plant injury at 250 g/ha: evaluated after 13 days, 100=total damage to plant, 0=no damage to plant; for plant injury at 250 g/ha: 250 g ai/ha
Procedure, shortened: as §1

[7] = test system: ivy-leaved morning glory (Ipomoea hederacea); assay: Test G Pre-Emergence Protocol; settings: Ipomoea, pre-emergence, 312 h, evaluated after 13 days; for pest or weed control at 15.625 g/ha: 15.625 g ai/ha; for pest or weed control at 15.625 g/ha / pest or weed control at 250 g/ha: read-out: Morningglory, Ivy-leaved damage rating (100=total damage to plant; 0=no damage to plant); for pest or weed control at 62.5 g/ha: 62.5 g ai/ha, 100=total damage to plant, 0=no damage to plant, read-out: Morningglory, Ivy-leaved damage rating; for pest or weed control at 250 g/ha: 250 g ai/ha
Procedure, shortened: (§2)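 One day after sowing, pots are treated with a spray of test compound formulated in acetone/water 50:50 plus 0.5% Tween 20, giving 15.625, 62.5 or 250 g/ha. Evaluation on a 0–100 damage scale follows 13 days of glasshouse growth.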

[8] = test system: velvetleaf (Abutilon theophrasti); assay: Test G Pre-Emergence Protocol; settings: Abutilon theophrasti, pre-emergence, 312 h, evaluated after 13 days; for pest or weed control at 15.625 g/ha: 15.625 g ai/ha; for pest or weed control at 15.625 g/ha / pest or weed control at 250 g/ha: read-out: Velvetleaf damage rating (100=total damage to plant; 0=no damage to plant); for pest or weed control at 62.5 g/ha: 62.5 g ai/ha, 100=total damage to plant, 0=no damage to plant, read-out: Velvetleaf damage rating; for pest or weed control at 250 g/ha: 250 g ai/ha
Procedure, shortened: as §2

[9] = test system: giant foxtail (Setaria faberi); assay: Test G Pre-Emergence Protocol; settings: Setaria faberi, pre-emergence, 312 h, evaluated after 13 days; for pest or weed control at 15.625 g/ha: 15.625 g ai/ha; for pest or weed control at 15.625 g/ha / pest or weed control at 250 g/ha: read-out: Foxtail, Giant damage rating (100=total damage to plant; 0=no damage to plant); for pest or weed control at 62.5 g/ha: 62.5 g ai/ha, 100=total damage to plant, 0=no damage to plant, read-out: Foxtail, Giant damage rating; for pest or weed control at 250 g/ha: 250 g ai/ha
Procedure, shortened: as §2

[10] = test system: barnyardgrass (Echinochloa crus-galli); assay: Test G Pre-Emergence Protocol; settings: Echinochloa crus-galli, pre-emergence, 312 h, evaluated after 13 days; for pest or weed control at 15.625 g/ha: 15.625 g ai/ha; for pest or weed control at 15.625 g/ha / pest or weed control at 250 g/ha: read-out: Barnyardgrass damage rating (100=total damage to plant; 0=no damage to plant); for pest or weed control at 62.5 g/ha: 62.5 g ai/ha, 100=total damage to plant, 0=no damage to plant, read-out: Barnyardgrass damage rating; for pest or weed control at 250 g/ha: 250 g ai/ha
Procedure, shortened: as §2

[11] = test system: redroot pigweed (Amaranthus retroflexus); assay: Test G Pre-Emergence Protocol; settings: Amaranthus retroflexus, pre-emergence, 312 h, evaluated after 13 days; for pest or weed control at 15.625 g/ha: 15.625 g ai/ha; for pest or weed control at 15.625 g/ha / pest or weed control at 250 g/ha: read-out: Pigweed, Redroot damage rating (100=total damage to plant; 0=no damage to plant); for pest or weed control at 62.5 g/ha: 62.5 g ai/ha, 100=total damage to plant, 0=no damage to plant, read-out: Pigweed, Redroot damage rating; for pest or weed control at 250 g/ha: 250 g ai/ha
Procedure, shortened: as §2

corn (Zea mays) [12] = assay: Test G Pre-Emergence Protocol; settings: Zea mays, pre-emergence, 312 h, evaluated after 13 days; for plant injury at 15.625 g/ha: 15.625 g ai/ha; for plant injury at 15.625 g/ha / plant injury at 250 g/ha: read-out: Corn damage rating (100=total damage to plant; 0=no damage to plant); for plant injury at 62.5 g/ha: 62.5 g ai/ha, 100=total damage to plant, 0=no damage to plant, read-out: Corn damage rating; for plant injury at 250 g/ha: 250 g ai/ha
Procedure, shortened: as §2

Compound | pest or weed control at 15.625 g/ha [1] | pest or weed control at 62.5 g/ha [1] | pest or weed control at 250 g/ha [1] | pest or weed control at 15.625 g/ha [2] | pest or weed control at 62.5 g/ha [2] | pest or weed control at 250 g/ha [2] | pest or weed control at 15.625 g/ha [3] | pest or weed control at 62.5 g/ha [3] | pest or weed control at 250 g/ha [3] | pest or weed control at 15.625 g/ha [4] | pest or weed control at 62.5 g/ha [4] | pest or weed control at 250 g/ha [4] | pest or weed control at 15.625 g/ha [5] | pest or weed control at 62.5 g/ha [5] | pest or weed control at 250 g/ha [5] | plant injury at 15.625 g/ha (corn (Zea mays) [6]) | plant injury at 62.5 g/ha (corn (Zea mays) [6]) | plant injury at 250 g/ha (corn (Zea mays) [6]) | pest or weed control at 15.625 g/ha [7] | pest or weed control at 62.5 g/ha [7] | other results
CC1OC(=O)c2c(NC(=O)[C@H]3C(=O)N(C)C[C@@H]3c3ccc(C(F)(F)F)cc3)cccc21 (mixture of isomers) [Compound 1670] | 0% | 0% | 0% | 0% | 0% | 0% | 0% | 70% | 80% | 0% | 20% | 60% | 0% | 20% | 90% | 0% | 0% | 10% | 0% | 0% | pest or weed control at 250 g/ha [7]: 0%; pest or weed control at 15.625 g/ha [8]: 0%; pest or weed control at 62.5 g/ha [8]: 0%; pest or weed control at 250 g/ha [8]: 0%; pest or weed control at 15.625 g/ha [9]: 0%; pest or weed control at 62.5 g/ha [9]: 20%; pest or weed control at 250 g/ha [9]: 50%; pest or weed control at 15.625 g/ha [10]: 0%; pest or weed control at 62.5 g/ha [10]: 0%; pest or weed control at 250 g/ha [10]: 0%; pest or weed control at 15.625 g/ha [11]: 0%; pest or weed control at 62.5 g/ha [11]: 0%; pest or weed control at 250 g/ha [11]: 20%; plant injury at 15.625 g/ha (corn (Zea mays) [12]): 0%; plant injury at 62.5 g/ha (corn (Zea mays) [12]): 0%; plant injury at 250 g/ha (corn (Zea mays) [12]): 0%
CN1CCCC(NC(=O)[C@H]2C(=O)N(C)C[C@@H]2c2ccc(C(F)(F)F)cc2)C1=O (mixture of isomers) [Compound 1674] | 0% | 0% | 0% | 0% | 0% | 0% | 0% | 0% | 20% | 0% | 0% | 0% | 0% | 0% | 0% | 0% | 0% | 0% | 0% | 0% | pest or weed control at 250 g/ha [7]: 0%; pest or weed control at 15.625 g/ha [8]: 0%; pest or weed control at 62.5 g/ha [8]: 0%; pest or weed control at 250 g/ha [8]: 0%; pest or weed control at 15.625 g/ha [9]: 0%; pest or weed control at 62.5 g/ha [9]: 0%; pest or weed control at 250 g/ha [9]: 0%; pest or weed control at 15.625 g/ha [10]: 0%; pest or weed control at 62.5 g/ha [10]: 0%; pest or weed control at 250 g/ha [10]: 0%; pest or weed control at 15.625 g/ha [11]: 0%; pest or weed control at 62.5 g/ha [11]: 0%; pest or weed control at 250 g/ha [11]: 0%; plant injury at 15.625 g/ha (corn (Zea mays) [12]): 0%; plant injury at 62.5 g/ha (corn (Zea mays) [12]): 0%; plant injury at 250 g/ha (corn (Zea mays) [12]): 0%
